Target: T1, leukotriene D4 (LTD4) induced contraction of guinea pig tracheal spiral strips (Cavia porcellus, UniProt Q2NNR5)
T1 construct: Guinea pig (adult male albino Hartley strain) tracheal spiral strips; from tissue; host or cells: guinea pig trachea (spiral strips, adult male albino Hartley strain)
T1 sequence (Q2NNR5 1-340): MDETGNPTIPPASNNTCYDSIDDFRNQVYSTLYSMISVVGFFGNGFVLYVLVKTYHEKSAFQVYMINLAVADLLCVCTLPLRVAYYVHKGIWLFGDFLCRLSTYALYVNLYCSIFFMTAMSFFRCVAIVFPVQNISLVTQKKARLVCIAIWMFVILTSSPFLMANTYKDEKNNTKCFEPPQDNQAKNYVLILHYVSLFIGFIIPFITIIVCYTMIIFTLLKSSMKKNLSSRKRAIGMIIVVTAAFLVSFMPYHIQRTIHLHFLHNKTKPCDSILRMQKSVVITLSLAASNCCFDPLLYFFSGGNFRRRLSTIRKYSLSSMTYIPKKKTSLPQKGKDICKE
Assay: Inhibition of leukotriene (LTD4) induced contraction of guinea pig tracheal tissues in vitro
Format: cell-based, guinea pig (adult male albino Hartley strain)
Details: LTD4 agonist, 30 min pretreatment with test compound, meclofenamic acid 1 μM, EC30 relative to carbachol (10 μM), read-out: In Vitro -Log KB (converted)
Protocol: The leukotriene antagonist activity of the compounds of this invention is measured by the ability of the compounds to inhibit the leukotriene induced contraction of guinea pig tracheal tissues in vitro. The following methodology was employed:
In vitro: Guinea pig (adult male albino Hartley strain) tracheal spiral strips of approximate dimensions 2 to 3 mm cross-sectional with and 3.5 cm length were bathed in modified Krebs buffer in jacketed 10 ml tissue bath and continuously aerated with 95% O2 /5% CO2. The tissues were connected via silk suture to force displacement transducers for recording isometric tension. The tissues were equilibrated for 1 hr., pretreated for 15 minutes with meclofenamic acid (1 μM) to remove intrinsic prostaglandin responses, and then pretreated for an additional 30 minutes with either the test compound or vehicle control. A cumulative concentration-response curve for LTD4 on triplicate tissues was generated by successive increases in the bath concentration of the LTD4. In order to minimize intertissue variability, the contractions elicited by LTD4 were standardized as a percentage of the maximum response obtained to a reference agonist, carbachol (10 μM).
Calculations: The averages of the triplicate LTD4 concentration-response curves both in the presence and absence of the test compound were plotted on log graph paper. The concentration of LTD4 needed to elicit 30% of the contraction elicited by carbachol was measured and defined as the EC30. The -log KB value for the test compound was determined by the following equations: [formula]
The antagonist activity of representative compounds of this invention is tabulated below. The -log KB values were calculated from the above test protocol.

Kb [µM] | SMILES
5.01 | CCCCCCCCCCC#CC(SCC(=O)O)SCC(=O)O [R1 = C10 H21, m = 1, n = 1, 3,5-dithia-4-(1-dodecynyl)-heptanedioic acid]
0.794 | CCCCCCCCCCC#CC(SCCC(=O)O)SCCC(=O)O [R1 = C10 H21, m = 2, n = 2, 4,6-dithia-5-(1-dodecynyl)-nonanedioic acid]

Further lines, the compound ahead of its results:

SMILES | Kb [µM]
CCCCCCCCC#CC(SCCC(=O)O)SCCC(=O)O [R1 = C8 H17, m = 2, n = 2, 4,6-Dithia-5-(1-decynyl)-nonanedioic acid] | 10
CCCCCCCCCCC#CC(SCCCC(=O)O)SCCCC(=O)O [R1 = C10 H21, m = 3, n = 3, 5,7-dithia-6-(1-dodecynyl)-undecanedioic acid] | 3.16
CCCCCCCCCCCCC#CC(SCCC(=O)O)SCCC(=O)O [R1 = C12 H25, m = 2, n = 2, 4,6-dithia-5-(1-tetradecynyl)-nonanedioic acid] | 2
